According to article PMC11111035, “Lemon basil seed-derived peptide: Hydrolysis, purification, and its role as a pancreatic lipase inhibitor that reduces adipogenesis by downregulating SREBP-1c and PPAR-γ in 3T3-L1 adipocytes” (PLOS ONE, 2024):
Ends that are not written are not given here.

Tests used:
lipase = details: cited from earlier work
Experimental: The Lineweaver-Burk plot was used to evaluated the inhibition mode of the […] peptide obtained from DLSH, and the outcome can be observed in Fig 6(A) (S6 Table). The plot of the inhibition activity was created by altering the concentration of the substrate while maintaining the peptide concentration at the same level throughout (0, 0.1, 0.3 and 0.5 mM). […] The peptide accordingly acted as a lipase inhibitor by taking the form o ...

3T3-L1 cells [1] = details: cited from earlier work
Excerpt: Although we believe there have been no previous studies detailing the […] peptide, it can be considered as a suitable novel peptide capable of addressing the problem of obesity. The literature does contain references to peptides which act in a similar manner to affect preadipocytes during their initial proliferation. […] It was noted by Zhang et al. that th ...

[2] = target: T1, porcine pancreatic lipase (Sus scrofa, UniProt P00591); assay: Lipase inhibitory activity (LI), pNPP substrate; format: biochemical; details: synthetic peptide, pH 7.0, 37°C, 30 min
T1 sequence (P00591 1-450): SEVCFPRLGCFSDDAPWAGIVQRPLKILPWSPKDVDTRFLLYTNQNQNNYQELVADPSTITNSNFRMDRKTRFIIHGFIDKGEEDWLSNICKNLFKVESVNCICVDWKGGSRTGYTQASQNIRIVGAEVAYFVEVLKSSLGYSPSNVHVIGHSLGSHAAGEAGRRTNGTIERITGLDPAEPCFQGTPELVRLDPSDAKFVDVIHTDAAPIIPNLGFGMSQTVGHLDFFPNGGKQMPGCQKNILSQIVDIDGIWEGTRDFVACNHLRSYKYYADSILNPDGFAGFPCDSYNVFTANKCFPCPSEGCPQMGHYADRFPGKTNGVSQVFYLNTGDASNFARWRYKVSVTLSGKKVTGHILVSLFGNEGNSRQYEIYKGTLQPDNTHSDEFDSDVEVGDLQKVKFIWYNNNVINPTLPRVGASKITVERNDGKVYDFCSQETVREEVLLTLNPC
Experimental: (§1) The determination of lipase inhibition was performed using a method with slight modifications as described by Ketprayoon et al.. The p-nitrophenyl palmitate (pNPP) was served as the substrate, with a solution containing 30 mg of pNPP dissolved in 10 mL of isopropanol. This pNPP solution was then emulsified by combining it with 90 mL of 50 mM Tris-HCl at pH 7.0, 20 μL of Triton X-100 and 100 mg of gum arabic. The assay was initiate the assay by incubating the porcine pancreatic lipase (0.5 mg/mL in 50 mM Tris‐HCl buffer, pH 7.0), pNPP solution and DLSH peptides at a temperature of 37°C for 30 min. Absorbance was then measured at 410 nm for p-nitrophenol with Orlistat employed as the positive control. […] LI=AN−AP×100/AN (3) in which AN indicates the absorbance of the negative control in the absence of the peptide, whereas AP indicates the absorbance of activity when the peptide is present.

[3] = target: T1, porcine pancreatic lipase; assay: Kinetic study of lipase inhibition (Lineweaver-Burk, Dixon plot); format: biochemical; details: non-competitive, pNPP, 37°C, pH 7.0, 30 min, mean ± SE (n = 3), read-out: Inhibition constant (Ki)
Experimental: as §1
The inhibitory mechanism of the lipase inhibitor was investigated using the Lineweaver-Burk plot. […] The reaction mixtures were incubated under a temperature of 37°C and pH 7.0 for 30 min, while initial velocity rates were determined at different substrate concentrations (0.1, 0.2, 0.3, 0.4, and 0.5 mM). […] The Michaelis-Menten constant (Km) and maximum velocity (Vmax) for the lipase inhibition were determined by analyzing the intercepts on the x-axis and y-axis, respectively. […]

3T3-L1 cells [4] = assay: MTT cell viability; format: cell-based; details: 72 h, mean ± SE (n = 3), ns
Experimental: Following incubation, each well received 10 μL of MTT solution (5 mg/mL), before a further 4 h of incubation at a temperature of 37°C. Then 100 μL of DMSO was added to dissolve the MTT-formazan crystals in the viable cells before measuring the absorbance at 540 nm.

AMPK-α = assay: Western blot AMPK-α expression; format: cell-based; details: GRSPDTHSG 0.25-1 mM or simvastatin 10 μM
Experimental: On the first day, a modified assay proposed by Zhang et al. was carried out for the purpose of 3T3-L1 cells cell culture and differentiation, by initially seeding the 3T3-L1 preadipocyte cells in 6-well plates with a density of 1×10^5 cells per well and then culturing in DMEM with 10% FBS at a temperature of 37°C for 24 h in an atmosphere of 5% carbon dioxide. On the second day, adipocyte differentiation was performed by treating the 3T3-L1 cells with a differentiation medium comprising DMEM with 10% FBS, mixed with 0.5 mM 3-isobutyl-1-methylxanthine (IBMX), 1 μM dexamethasone, and 10 μg/mL insulin. This process took three days, whereupon on day 5 the original medium was removed and a new insulin medium, comprising DMEM with 10% FBS and 10 μg/mL insulin, was used to maintain adipocyte characteristics with a 3-day incubation period. […] Once extracted, the proteins of equivalent concentration underwent separation on 12% sodium dodecyl sulfate-polyacrylamide gel electrophoresis (SDS-PAGE) before moving to polyvinylidene fluoride (PVDF) membranes (Millipore, Bedford, MA, USA). […] The membranes were then incubated overnight at a temperature of 4°C with the primary antibodies (PPAR-γ, AMPK-α, SREBP-1C and β-actin) diluted at 1:1000. […] The band intensity could then be measured using ImageJ software (version 1.53; National Institutes of Health, MD, USA). […]

3T3-L1 adipocytes = assay: Intracellular lipid accumulation, Oil Red O staining; format: cell-based; details: simvastatin 10 μM (S); % of differentiated model (100%); mean ± SE
Experimental: On the first day, a modified assay proposed by Zhang et al. was carried out for the purpose of 3T3-L1 cells cell culture and differentiation, by initially seeding the 3T3-L1 preadipocyte cells in 6-well plates with a density of 1×10^5 cells per well and then culturing in DMEM with 10% FBS at a temperature of 37°C for 24 h in an atmosphere of 5% carbon dioxide. On the second day, adipocyte differentiation was performed by treating the 3T3-L1 cells with a differentiation medium comprising DMEM with 10% FBS, mixed with 0.5 mM 3-isobutyl-1-methylxanthine (IBMX), 1 μM dexamethasone, and 10 μg/mL insulin. This process took three days, whereupon on day 5 the original medium was removed and a new insulin medium, comprising DMEM with 10% FBS and 10 μg/mL insulin, was used to maintain adipocyte characteristics with a 3-day incubation period. […] Oil Red O staining was then used to evaluate the intracellular lipid accumulation of the mature 3T3-L1 adipocytes. This process required the cells to first be rinsed in PBS and then fixed for 1 h at room temperature with 10% formalin. […] It was then possible to evaluate the accumulation of lipids by dissolving in isopropanol (100%), and to measure the absorbance at 540 nm. The lipid accumulation was expressed as a percentage in comparison to the control.

glutathione
Mode of lipase inhibition (lipase): non-competitive inhibition

DIVDKIEI [peptide derived from extract of boiled tuna]
3T3-L1 preadipocyte differentiation (3T3-L1 cells [1]): effective in inhibiting 3T3-L1 preadipocyte differentiation | Triglyceride levels and glucose uptake (3T3-L1 cells [1]): lowering both triglyceride levels and the uptake of glucose

NPVWKRK [peptide from Spirulina platensis protein, pepsin digestion]
Triglyceride accumulation (3T3-L1 cells [1]): potentially limiting triglyceride accumulation

GAGVGY [GAGVGY]
Glucose transport and lipid metabolism (3T3-L1 cells [1]): enhance the transport of glucose and support the lipid metabolism in 3T3-L1 adipocytes

CANPHELPNK [peptide from Spirulina platensis protein, pepsin digestion]
Triglyceride accumulation (3T3-L1 cells [1]): potentially limiting triglyceride accumulation

GRSPDTHSG
IC50 [2]: 255 µM | Ki [3]: 610 ± 90 µM | Cell viability (3T3-L1 cells [4]; 0.25 mM): 97.02 ± 4.65% | Cell viability (3T3-L1 cells [4]; 0.50 mM): 92.90 ± 1.60% | Cell viability (3T3-L1 cells [4]; 1.00 mM): 85.96 ± 2.05%

CCC(C)(C)C(=O)O[C@H]1C[C@@H](C)C=C2C=C[C@H](C)[C@H](CC[C@@H]3C[C@@H](O)CC(=O)O3)[C@H]21 [Simvastatin, simvastatin]
AMPK expression, in words (AMPK-α): AMPK expression level rose | Lipid accumulation (3T3-L1 adipocytes): 51.66 ± 1.81%

LLVVYPWTQR [synthetic decapeptide derived from C. pyenoidose]
Intracellular lipid accumulation (3T3-L1 cells [1]; 600 μg/mL, reduced): 27.91%
